Where a name gives a salt, the structure may show the parent alone.
Biological target: T1, human full length HSD11 β 1 (Homo sapiens, UniProt P28845)
T1 construct: transient expression of human full length HSD11 β 1 expression vector; host or cells: CHO cells (transient transfection)
Assay: In Vitro HSD11β1 Inhibition Assay
Assay type: cell-based
Conditions: CHO cells transiently expressing human HSD11β1; 200 nM cortisone+500 uM NADPH overnight; cortisone to cortisol by LC/MS-MS; read-out: 11βHSD1 (IC50)
Procedure, shortened: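 CHO cells transiently transfected with human full-length HSD11β1 were re-seeded after 24 h and, 24 h later, incubated overnight with 200 nM cortisone plus 500 uM NADPH and inhibitor. Cortisone-to-cortisol conversion was measured by LC/MS-MS. IC50 from an 8-point log concentration–inhibition curve.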

T1 sequence (P28845 whole entry): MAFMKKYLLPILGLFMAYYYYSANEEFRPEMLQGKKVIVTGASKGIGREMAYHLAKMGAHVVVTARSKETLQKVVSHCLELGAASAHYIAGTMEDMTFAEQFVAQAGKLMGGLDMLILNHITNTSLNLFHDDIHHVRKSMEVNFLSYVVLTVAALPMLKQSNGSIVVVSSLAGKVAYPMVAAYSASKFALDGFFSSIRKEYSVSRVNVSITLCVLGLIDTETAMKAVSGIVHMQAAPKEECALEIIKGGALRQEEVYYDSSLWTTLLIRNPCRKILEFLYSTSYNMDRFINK

SMILES	IC50
O=C(CCc1n[nH]c2ccccc12)N1CCCC2CCCCC21 (stereo not shown) [Example 88, 3-(1H-indazol-3-yl)-1-(octahydroquinolin-1(2H)-yl)propan-1-one]	> 250 nM
Cn1nc(CCC(=O)N2CCCC3CCCCC32)c2ccccc21 (stereo not shown) [Example 89, 3-(1-methyl-1H-indazol-3-yl)-1-(octahydroquinolin-1(2H)-yl)propan-1-one]	150 to 200 nM
CC12CCCCC1N(C(=O)CCn1nnc3ccccc31)CCC2 (stereo not shown) [Example 90, 3-(1H-benzotriazol-1-yl)-1-(4a-methyloctahydroquinolin-1(2H)-yl)propan-1-one]	100 to 150 nM
O=C(CCn1nnc2ccccc21)N1CCOC2CCCCC21 (stereo not shown) [Example 91, 3-(1H-benzotriazol-1-yl)-1-(octahydro-4H-1,4-benzoxazin-4-yl)propan-1-one]	> 250 nM
CC(CC(=O)N1C(C)CCC2CCCCC21)c1c[nH]c2ccc(F)cc12 (stereo not shown) [Example 92, 3-(5-fluoro-1H-indol-3-yl)-1-(2-methyloctahydroquinolin-1(2H)-yl)butan-1-one]	100 to 150 nM
O=C(CCc1c[nH]c2ccccc12)N1CCCC2CCCCC21 (stereo not shown) [Example 93, 3-(1H-indol-3-yl)-1-(octahydroquinolin-1(2H)-yl)propan-1-one]	< 100 nM
CC(CC(=O)N1CCCC2CCCCC21)c1cn(C)c2ccccc12 (stereo not shown) [Example 94, 3-(1-methyl-1H-indol-3-yl)-1-(octahydroquinolin-1(2H)-yl)butan-1-one]	150 to 200 nM
CC(C)C(CC(=O)N1CCCC2CCCCC21)c1c[nH]c2ccccc12 (stereo not shown) [Example 95, 3-(1H-indol-3-yl)-4-methyl-1-(octahydroquinolin-1(2H)-yl)pentan-1-one]	< 100 nM
CC(=O)NC(Cc1c[nH]c2ccccc12)C(=O)N1CCCC2CCCCC21 (stereo not shown) [Example 96, N-[3-(1H-indol-3-yl)-1-(octahydroquinolin-1(2H)-yl)-1-oxopropan-2-yl]acetamide]	> 250 nM
Cn1cc(C2CC2C(=O)N2CCCC3CCCCC32)c2ccccc21 (stereo not shown) [Example 97, [2-(1-methyl-1H-indol-3-yl)cyclopropyl](octahydroquinolin-1(2H)-yl)methanone]	150 to 200 nM
N#CC(Cc1c[nH]c2ccccc12)C(=O)N1CCCC2CCCCC21 (stereo not shown) [Example 98, 2-(1H-indol-3-ylmethyl)-3-(octahydroquinolin-1(2H)-yl)-3-oxopropanenitrile]	> 250 nM
O=C(COc1c[nH]c2ccccc12)N1CCCC2CCCCC21 (stereo not shown) [Example 99, 2-(1H-indol-3-yloxy)-1-(octahydroquinolin-1(2H)-yl)ethanone]	> 250 nM
CC(Oc1cn(C)c2ccccc12)C(=O)N1CCCC2CCCCC21 (stereo not shown) [Example 100, 2-[(1-methyl-1H-indol-3-yl)oxy]-1-(octahydroquinolin-1(2H)-yl)propan-1-one]	> 250 nM
COC(=O)C1CCN(C(=O)CC(c2c[nH]c3ccccc23)C(C)C)C2CCCCC12 (stereo not shown) [Example 101, methyl 1-[3-(1H-indol-3-yl)-4-methylpentanoyl]decahydroquinoline-4-carboxylate]	> 250 nM
COC(=O)C1CCN(C(=O)CC(C)c2c[nH]c3ccccc23)C2CCCCC12 (stereo not shown) [Example 102, methyl 1-[3-(1H-indol-3-yl)butanoyl]decahydroquinoline-4-carboxylate]	> 250 nM
CC(CC(=O)N1CCC(=O)C2CCCCC21)c1c[nH]c2ccccc12 (stereo not shown) [Example 103, 1-[3-(1H-indol-3-yl)butanoyl]octahydroquinolin-4(1H)-one]	> 250 nM
CC(C)C(CC(=O)N1CCC(=O)C2CCCCC21)c1c[nH]c2ccccc12 (stereo not shown) [Example 104, 1-[3-(1H-indol-3-yl)-4-methylpentanoyl]octahydroquinolin-4(1H)-one]	> 250 nM
CC(C)C(CC(=O)N1CCC(C(=O)O)C2CCCCC21)c1c[nH]c2ccccc12 (stereo not shown) [Example 105, 1-[3-(1H-indol-3-yl)-4-methylpentanoyl]decahydroquinoline-4-carboxylic acid]	> 250 nM
CC(CC(=O)N1CCC(O)C2CCCCC21)c1c[nH]c2ccccc12 (stereo not shown) [Example 106, 1-(4-hydroxyoctahydroquinolin-1(2H)-yl)-3-(1H-indol-3-yl)butan-1-one]	> 250 nM

Second part, the molecule after the results:

IC50	SMILES
> 250 nM	CC(C)C(CC(=O)N1CCC(C(=O)O)C2CCCCC21)c1c[nH]c2ccccc12 (stereo not shown) [Example 107, 1-[3-(1H-indol-3-yl)-4-methylpentanoyl]decahydroquinoline-4-carboxylic acid sodium salt]
> 250 nM	O=C(CC(O)(c1c[nH]c2ccccc12)C(F)(F)F)N1CCCC2CCCCC21 (stereo not shown) [Example 108, 4,4,4-trifluoro-3-hydroxy-3-(1H-indol-3-yl)-1-(octahydroquinolin-1(2H)-yl)butan-1-one]
> 250 nM	N#CC(CC(=O)N1CCCC2CCCCC21)c1c[nH]c2ccccc12 (stereo not shown) [Example 109, 2-(1H-indol-3-yl)-4-(octahydroquinolin-1(2H)-yl)-4-oxobutanenitrile]
> 250 nM	CC(C)(c1c[nH]c2ccccc12)C(C#N)C(=O)N1CCCC2CCCCC21 (stereo not shown) [Example 110, 3-(1H-indol-3-yl)-3-methyl-2-(octahydroquinolin-1(2H)-ylcarbonyl)butanenitrile]
< 100 nM	CC(C)C(CC(=O)N1CCCC2CCCCC21)c1c[nH]c2cccc(F)c12 (stereo not shown) [Example 111, 3-(4-fluoro-1H-indol-3-yl)-4-methyl-1-(octahydroquinolin-1(2H)-yl)pentan-1-one]
< 100 nM	CC(C)C(CC(=O)N1CCCC2(C)CCCCC12)c1c[nH]c2cccc(F)c12 (stereo not shown) [Example 112, 3-(4-fluoro-1H-indol-3-yl)-4-methyl-1-(4a-methyloctahydroquinolin-1(2H)-yl)pentan-1-one]
> 250 nM	CC(CC(=O)N1CCCC2(C)CCCCC12)c1cn(C)c2ccccc12 (stereo not shown) [Example 113, 3-(1-methyl-1H-Indol-3-yl)-1-(4a-methyloctahydroquinolin-1(2H)-yl)butan-1-one]
< 100 nM	CC(CC(=O)N1CCCC2(C)CCCCC12)c1c[nH]c2cccc(F)c12 (stereo not shown) [Example 114, 3-(4-fluoro-1H-indol-3-yl)-1-(4a-methyloctahydroquinolin-1(2H)-yl)butan-1-one]
< 100 nM	CC(CC(=O)N1CCCC2CCCCC21)c1c[nH]c2cccc(F)c12 (stereo not shown) [Example 121, 3-(4-fluoro-1H-indol-3-yl)-1-(octahydroquinolin-1(2H)-yl)butan-1-one]
> 250 nM	CC(CC(=O)N1CCC[C@H]2CCCC[C@@H]21)c1c[nH]c2cccc(Cl)c12 (stereo partly drawn) [Example 126, 3-(4-chloro-1H-indol-3-yl)-1-[trans-(4a,8a)-octahydroquinolin-1(2H)-yl]butan-1-one]
> 250 nM	CCOC(=O)C12CCCCC1N(C(=O)CC(C)c1c[nH]c3cccc(Cl)c13)CCC2 (stereo not shown) [Example 127, ethyl 1-[3-(4-chloro-1H-indol-3-yl)butanoyl]octahydroquinoline-4a(2H)-carboxylate]
> 250 nM	CC(CC(=O)N1CCCC2(c3ccccc3)CCCCC12)c1c[nH]c2cccc(Cl)c12 (stereo not shown) [Example 128, 3-(4-chloro-1H-indol-3-yl)-1-(4a-phenyloctahydroquinolin-1(2H)-yl)butan-1-one]
> 250 nM	CC(CC(=O)N1CCCC2(C(=O)O)CCCCC12)c1c[nH]c2cccc(Cl)c12 (stereo not shown) [Example 129, 1-[3-(4-chloro-1H-indol-3-yl)butanoyl]octahydroquinoline-4a(2H)-carboxylic acid]
> 250 nM	CC(CC(=O)N1CCCC2(CO)CCCCC12)c1c[nH]c2cccc(Cl)c12 (stereo not shown) [Example 130, 3-(4-chloro-1H-indol-3-yl)-1-[4a-(hydroxymethyl)octahydroquinolin-1(2H)-yl]butan-1-one]
> 250 nM	CC(CC(=O)N1CCCC2(CO)CCCCC12)c1c[nH]c2ccccc12 (stereo not shown) [Example 131, 1-[4a-(hydroxymethyl)octahydroquinolin-1(2H)-yl]-3-(1H-indol-3-yl)butan-1-one]
150 to 200 nM	Cc1cccc2[nH]cc(C(C)CC(=O)N3CCCC4(O)CCCCC34)c12 (stereo not shown) [Example 132, 1-(4a-hydroxyoctahydroquinolin-1(2H)-yl)-3-(4-methyl-1H-indol-3-yl)butan-1-one]
> 250 nM	CC(C)C(CC(=O)N1CCOC2CCCCC21)c1c[nH]c2ccccc12 (stereo not shown) [Example 133, 3-(1H-indol-3-yl)-4-methyl-1-(octahydro-4H-1,4-benzoxazin-4-yl)pentan-1-one]
> 250 nM	CC(C)C(CC(=O)N1CCOC2CCCCC21)c1cn(C)c2ccccc12 (stereo not shown) [Example 134, 4-methyl-3-(1-methyl-1H-indol-3-yl)-1-(octahydro-4H-1,4-benzoxazin-4-yl)pentan-1-one]
> 250 nM	CC(C)C(CC(=O)N1CCOC2CCCCC21)c1c[nH]c2cccc(F)c12 (stereo not shown) [Example 135, 3-(4-fluoro-1H-indol-3-yl)-4-methyl-1-(octahydro-4H-1,4-benzoxazin-4-yl)pentan-1-one]
> 250 nM	CC(CC(=O)N1CCOC2CCCCC21)c1c[nH]c2cccc(F)c12 (stereo not shown) [Example 136, 3-(4-fluoro-1H-indol-3-yl)-1-(octahydro-4H-1,4-benzoxazin-4-yl)butan-1-one]
> 250 nM	CCOC(=O)C12CCCCC1N(C(=O)CC(C)c1nc3ccccc3s1)CCC2 (stereo not shown) [Example 141, ethyl 1-[3-(1,3-benzothiazol-2-yl)butanoyl]octahydroquinoline-4a(2H)-carboxylate]
< 100 nM	CC(CC(=O)N1CCC2CCCCC21)c1nc2ccccc2s1 (stereo not shown) [Example 142, 3-(1,3-benzothiazol-2-yl)-1-(octahydro-1H-indol-1-yl)butan-1-one]
< 100 nM	CC(CC(=O)N1CCCC2CCCCC21)c1c[nH]c2ncccc12 (stereo not shown) [Example 143, 1-(octahydroquinolin-1(2H)-yl)-3-(1H-pyrrolo[2,3-b]pyridin-3-yl)butan-1-one]
> 250 nM	CC(CC(=O)N1CCCC2(CO)CCCCC12)c1c[nH]c2ncccc12 (stereo not shown) [Example 146, 1-[4a-(hydroxymethyl)octahydroquinolin-1(2H)-yl]-3-(1H-pyrrolo[2,3-b]pyridin-3-yl)butan-1-one]

— patent publication US9453014B2, “Cyclic amide derivatives as inhibitors of 11-β-hydroxysteroid dehydrogenase and uses thereof” (CONNEXIOS LIFE SCIENCES PVT. LTD., priority 2011, dated 2016)
